Source: US20240158446A1, “CYCLIC COMPOUND HAVING SELECTIVE INHIBITORY ACTION ON KRAS OVER HRAS AND NRAS” (CHUGAI SEIYAKU KABUSHIKI KAISHA, priority 2021, published 2024)
Read-outs that look alike come from different tables or passages of the source. Where a SMILES comes first, the peptide text is derived from it. Bridges are numbered along the chain shown (N, C = ends). [ ]: non-standard residue; d: D form. The star is where a group is joined. hPhe(3,5-F2-4-CF3) = N[C@@H](CCc1cc(F)c(C(F)(F)F)c(F)c1)C(=O)O; hPhe(3-Cl-4-CF3) = N[C@@H](CCc1ccc(C(F)(F)F)c(Cl)c1)C(=O)O; NPrPhe(4-CF3) = CCCN[C@@H](Cc1ccc(C(F)(F)F)cc1)C(=O)O; NMeGly(cPent) = CN[C@H](C(=O)O)C1CCCC1; Pro(4,4-F2) = O=C(O)[C@@H]1CC(F)(F)CN1; Ac4c(3,3-F2) = NC1(C(=O)O)CC(F)(F)C1; Hyp = O=C(O)[C@@H]1C[C@@H](O)CN1; NMeD = CN[C@@H](CC(=O)O)C(=O)O; NMeL = CN[C@@H](CC(C)C)C(=O)O; Morpholide = C1CN(*)CCO1; NMeA = CN[C@@H](C)C(=O)O; Ac5c = NC1(C(=O)O)CCCC1; Aze = O=C(O)[C@@H]1CCN1; Ac4c = NC1(C(=O)O)CCC1; Sar = CNCC(=O)O

How the values were obtained:
[1] = target: GDP-bound KRAS wild-type protein (Homo sapiens, UniProt P01116); test: Binding to KRAS by surface plasmon resonance (SPR), Single Cycle Kinetics; conditions: GDP-bound KRAS wild-type protein, read-out: KRAS KD
Chain of GDP-bound KRAS wild-type protein (P01116 whole entry): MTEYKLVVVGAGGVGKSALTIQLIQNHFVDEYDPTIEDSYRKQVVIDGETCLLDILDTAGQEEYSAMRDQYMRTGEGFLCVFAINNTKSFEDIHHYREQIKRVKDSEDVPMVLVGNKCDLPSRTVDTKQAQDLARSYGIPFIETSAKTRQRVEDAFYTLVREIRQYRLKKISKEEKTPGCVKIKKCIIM

[2] = target: GDP-bound NRAS wild-type protein (Homo sapiens, UniProt P01111); test: Binding to NRAS by surface plasmon resonance (SPR), Single Cycle Kinetics; conditions: for NRAS/KRAS (ratio of KD value with respect to GDP-bound NRAS wild-type protein to KD value with respect to KRAS): SPR KD ratio NRAS/KRAS, class symbols
Chain of GDP-bound NRAS wild-type protein (P01111 whole entry): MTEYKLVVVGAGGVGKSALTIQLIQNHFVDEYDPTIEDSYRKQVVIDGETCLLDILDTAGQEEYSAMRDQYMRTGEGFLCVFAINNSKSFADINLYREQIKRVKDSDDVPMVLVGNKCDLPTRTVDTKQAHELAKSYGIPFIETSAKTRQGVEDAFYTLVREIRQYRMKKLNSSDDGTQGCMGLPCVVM

[3] = target: GDP-bound HRAS wild-type protein (Homo sapiens, UniProt P01112); test: Binding to HRAS by surface plasmon resonance (SPR), Single Cycle Kinetics; conditions: for HRAS/KRAS (ratio of KD value with respect to GDP-bound HRAS wild-type protein to KD value with respect to KRAS): SPR KD ratio HRAS/KRAS, class symbols
Chain of GDP-bound HRAS wild-type protein (P01112 whole entry): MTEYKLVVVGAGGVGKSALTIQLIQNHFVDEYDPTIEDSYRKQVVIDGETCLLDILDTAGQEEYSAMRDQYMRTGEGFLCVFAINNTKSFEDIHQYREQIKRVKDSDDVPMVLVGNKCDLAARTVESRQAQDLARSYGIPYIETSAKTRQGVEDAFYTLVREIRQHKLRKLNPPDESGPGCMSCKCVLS

[4] = SPR Single Cycle Kinetics, 1:1 binding model
[5] = SPR, GDP-bound NRAS wild-type protein vs GDP-bound KRAS wild-type protein
[6] = SPR, GDP-bound HRAS wild-type protein vs GDP-bound KRAS wild-type protein

SMILES | Kd [1, 4] | Kd ([1]; SPR, Single Cycle Kinetics) | NRAS/KRAS (ratio of KD value with respect to GDP-bound NRAS wild-type protein to KD value with respect to KRAS) [2] | HRAS/KRAS (ratio of KD value with respect to GDP-bound HRAS wild-type protein to KD value with respect to KRAS) [3] | NRAS/KRAS (ratio of KD value for NRAS to KD value for KRAS) [2, 5] | HRAS/KRAS (ratio of KD value for HRAS to KD value for KRAS) [3, 6] | NRAS/KRAS (ratio of KD value with respect to NRAS to KD value with respect to KRAS) [2, 5] | HRAS/KRAS (ratio of KD value with respect to HRAS to KD value with respect to KRAS) [3, 6]
CCO[C@@H]1C[C@H]2C(=O)NC3(CCC3)C(=O)N(C)[C@@H](C(C)C)C(=O)N(C)[C@H](C(=O)N(C)C)CC(=O)N(C)[C@@H](CC)C(=O)N[C@@H]([C@@H](C)CC)C(=O)N(C)CC(=O)N(C)[C@H]3C/C=C\CCN(C3=O)[C@@H](Cc3ccc(C(F)(F)F)cc3)C(=O)N(C)CC(=O)N[C@@H](CCc3cc(F)c(C(F)(F)F)c(F)c3)C(=O)N2C1 [PP1088] | – | 550 pM | – | – | A (a compound having 10 or more and less than 20 is denoted as A) | A (a compound having 10 or more and less than 20 is denoted as A) | – | –
CCCN1C(=O)CN(C)C(=O)CNC(=O)[C@H]([C@@H](C)CC)NC(=O)[C@H](CC(C)C)N(C)C(=O)C[C@@H](C(=O)N(C)C)NC(=O)[C@H](C2CCCC2)N(C)C(=O)C2(CCCC2)NC(=O)[C@@H]2CCCN2C(=O)[C@H](CCc2ccc(C(F)(F)F)c(Cl)c2)NC(=O)CN(C)C(=O)[C@@H]1Cc1ccc(C(F)(F)F)cc1 [PP0361] ([NMeL]IG[Sar][NPrPhe(4-CF3)][Sar][hPhe(3-Cl-4-CF3)]P[Ac5c][NMeGly(cPent)]D-NMe2; lactam N-11) | 720 pM | – | – | – | B (a compound having 3 or more and less than 10 is denoted as B) | C (A compound having a KD ratio of 0.1 or more and less than 3 is denoted as C) | – | –
CCCN1C(=O)[C@@H]2CCN2C(=O)CN(C)C(=O)[C@H]([C@@H](C)CC)NC(=O)[C@H](CC(C)C)N(C)C(=O)C[C@@H](C(=O)N2CCOCC2)N(C)C(=O)[C@H](C2CCCC2)N(C)C(=O)C2(CC(F)(F)C2)NC(=O)[C@@H]2CCCN2C(=O)[C@H](CCc2cc(F)c(C(F)(F)F)c(F)c2)NC(=O)CN(C)C(=O)[C@@H]1Cc1ccc(C(F)(F)F)cc1 [PP0802] ([NMeL]I[Sar][Aze][NPrPhe(4-CF3)][Sar][hPhe(3,5-F2-4-CF3)]P[Ac4c(3,3-F2)][NMeGly(cPent)][NMeD]-Morpholide; lactam N-11) | 82 pM | – | – | – | – | – | C (A compound having a KD ratio of 0.1 or more and less than 3 is denoted as C) | B (a compound having 3 or more and less than 10 is denoted as B)
CC[C@H](C)[C@@H]1NC(=O)[C@H](COC)N(C)C(=O)C[C@@H](C(=O)N2CCOCC2)N(C)C(=O)[C@H](C2CCCC2)N(C)C(=O)C2(CCCC2)NC(=O)[C@@H]2C[C@H](O)CN2C(=O)[C@H](CCc2cc(F)c(C(F)(F)F)c(F)c2)NC(=O)CN(C)C(=O)[C@H](Cc2ccc(C(F)(F)F)cc2)N2CCCCC[C@@H](C2=O)N(C)C(=O)CN(C)C1=O [PP0847] | – | 280 pM | – | – | B (a compound having 3 or more and less than 10 is denoted as B) | B (a compound having 3 or more and less than 10 is denoted as B) | – | –

Continued, in another order:

Kd [1, 4] | Kd ([1]; SPR, Single Cycle Kinetics) | SMILES | NRAS/KRAS (ratio of KD value with respect to GDP-bound NRAS wild-type protein to KD value with respect to KRAS) [2] | HRAS/KRAS (ratio of KD value with respect to GDP-bound HRAS wild-type protein to KD value with respect to KRAS) [3] | NRAS/KRAS (ratio of KD value for NRAS to KD value for KRAS) [2, 5] | HRAS/KRAS (ratio of KD value for HRAS to KD value for KRAS) [3, 6] | NRAS/KRAS (ratio of KD value with respect to NRAS to KD value with respect to KRAS) [2, 5] | HRAS/KRAS (ratio of KD value with respect to HRAS to KD value with respect to KRAS) [3, 6]
86 pM | – | CCO[C@@H]1C[C@H]2C(=O)NC3(CC(C)(C)C3)C(=O)N(C)[C@@H](C(CC)CC)C(=O)N(C)[C@H](C(=O)N(C)C)CC(=O)N(C)[C@H]3CCC/C=C/c4ccc(cc4)C[C@@H](C(=O)N(C)CC(=O)N[C@@H](CCc4cc(F)c(C(F)(F)F)c(F)c4)C(=O)N2C1)N1CC/C=C\C[C@@H](C1=O)N(C)C(=O)CN(C)C(=O)[C@H]([C@@H](C)CC)NC3=O [PP2575] | A (a compound having 10 or more and less than 20 is denoted as A) | A (a compound having 10 or more and less than 20 is denoted as A) | – | – | – | –
440 pM | – | CCCN1C(=O)[C@@H]2CCN2C(=O)CN(C)C(=O)[C@H]([C@@H](C)CC)NC(=O)[C@H](CC(C)C)N(C)C(=O)C[C@@H](C(=O)N2CCOCC2)NC(=O)[C@H](C2CCCC2)N(C)C(=O)C2(CCC2)NC(=O)[C@@H]2C[C@@H](OCC)CN2C(=O)[C@H](CCc2ccc(C(F)(F)F)c(Cl)c2)NC(=O)CN(C)C(=O)[C@@H]1Cc1ccc(C(F)(F)F)cc1 [PP0354] ([NMeL]I[Sar][Aze][NPrPhe(4-CF3)][Sar][hPhe(3-Cl-4-CF3)][Hyp](Et)[Ac4c][NMeGly(cPent)]D-Morpholide; lactam N-11) | – | – | C (A compound having a KD ratio of 0.1 or more and less than 3 is denoted as C) | B (a compound having 3 or more and less than 10 is denoted as B) | – | –
490 pM | – | CCCN1C(=O)[C@@H]2CCN2C(=O)[C@H](C)N(C)C(=O)[C@H]([C@@H](C)CC)NC(=O)[C@H](CC(C)C)N(C)C(=O)C[C@@H](C(=O)N(C)C)NC(=O)[C@H](C2CCCC2)N(C)C(=O)C2(CCCC2)NC(=O)[C@@H]2CC(F)(F)CN2C(=O)[C@H](CCc2ccc(C(F)(F)F)c(Cl)c2)NC(=O)CN(C)C(=O)[C@@H]1Cc1ccc(C(F)(F)F)cc1 [PP0381] ([NMeL]I[NMeA][Aze][NPrPhe(4-CF3)][Sar][hPhe(3-Cl-4-CF3)][Pro(4,4-F2)][Ac5c][NMeGly(cPent)]D-NMe2; lactam N-11) | – | – | C (A compound having a KD ratio of 0.1 or more and less than 3 is denoted as C) | B (a compound having 3 or more and less than 10 is denoted as B) | – | –
– | 22 pM | CCO[C@@H]1C[C@H]2C(=O)NC3(CCC3)C(=O)N(C)[C@@H](C3CCCC3)C(=O)N(C)[C@H](C(=O)N(C)C)CC(=O)N(C)[C@@H](CC)C(=O)N[C@@H]([C@@H](C)CC)C(=O)N(C)CC(=O)N(C)[C@H]3CCCCN(C3=O)[C@@H](Cc3ccc(C(F)(F)F)cc3)C(=O)N(C)CC(=O)N[C@@H](CCc3ccc(C(F)(F)F)c(OC)c3)C(=O)N2C1 [PP0884] | – | – | C (A compound having a KD ratio of 0.1 or more and less than 3 is denoted as C) | C (A compound having a KD ratio of 0.1 or more and less than 3 is denoted as C) | – | –
– | 240 pM | CCCO[C@@H]1CCN2C(=O)[C@H](CCc3cc(F)c(C(F)(F)F)c(F)c3)NC(=O)CN(C)C(=O)[C@H](Cc3ccc(C(F)(F)F)cc3)N3CCCC[C@@H](C3=O)N(C)C(=O)CN(C)C(=O)[C@H]([C@@H](C)CC)NC(=O)[C@H](CC(C)C)N(C)C(=O)C[C@@H](C(=O)N3CCOCC3)N(C)C(=O)[C@H](C3CCCC3)N(C)C(=O)C3(CCC3)NC(=O)[C@H]12 [PP1080] | – | – | B (a compound having 3 or more and less than 10 is denoted as B) | B (a compound having 3 or more and less than 10 is denoted as B) | – | –
260 pM | – | CCC[C@H]1C(=O)N[C@@H]([C@@H](C)CC)C(=O)N(C)CC(=O)N(C)[C@H]2C/C=C\CCN(C2=O)[C@@H](Cc2ccc(C(F)(F)F)cc2)C(=O)N(C)CC(=O)N[C@@H](CCc2ccc(Cl)c(C(F)(F)F)c2)C(=O)N2C[C@H](OCC)C[C@H]2C(=O)NC2(CC(C)(C)C2)C(=O)N(C)[C@@H](C(CC)CC)C(=O)N(C)[C@H](C(=O)N(C)C)CC(=O)N1C [PP2785] | AA (a compound having 20 or more is denoted as AA) | A (a compound having 10 or more and less than 20 is denoted as A) | – | – | – | –
